In patent US20070148136A1, “Methods of using ammonia oxidizing bacteria” (priority 2003, published 2007):
“Also recorded” adds a separate entry of the source. Where two headings read alike, the source gives them in different places.

Legend:
[1] = tested on: N. europaea; settings: cited from earlier work
[2] = tested on: N. mobilis; settings: cited from earlier work
[3] = tested on: N, multiformis; settings: cited from earlier work
[4] = tested on: Nitrosospira sp. strain AV; settings: cited from earlier work
[5] = molecular target: T1, ammonia monooxygenase (Nitrosomonas europaea, UniProt Q04507+Q04508); settings: cited from earlier work
T1 construct: endogenous in cells; host or cells: autotrophic ammonia oxidizing bacteria (AAOB), mixed and unspecified, e.g. in waste water
T1 sequence (Q04507 1-276): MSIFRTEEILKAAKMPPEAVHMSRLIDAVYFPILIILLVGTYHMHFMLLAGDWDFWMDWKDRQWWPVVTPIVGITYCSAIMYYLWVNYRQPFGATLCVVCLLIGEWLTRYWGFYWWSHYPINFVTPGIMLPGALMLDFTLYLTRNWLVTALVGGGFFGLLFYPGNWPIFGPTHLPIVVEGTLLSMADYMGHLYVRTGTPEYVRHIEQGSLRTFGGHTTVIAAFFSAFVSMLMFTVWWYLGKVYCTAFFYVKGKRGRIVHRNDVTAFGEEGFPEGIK
T1 sequence (Q04508 26-420): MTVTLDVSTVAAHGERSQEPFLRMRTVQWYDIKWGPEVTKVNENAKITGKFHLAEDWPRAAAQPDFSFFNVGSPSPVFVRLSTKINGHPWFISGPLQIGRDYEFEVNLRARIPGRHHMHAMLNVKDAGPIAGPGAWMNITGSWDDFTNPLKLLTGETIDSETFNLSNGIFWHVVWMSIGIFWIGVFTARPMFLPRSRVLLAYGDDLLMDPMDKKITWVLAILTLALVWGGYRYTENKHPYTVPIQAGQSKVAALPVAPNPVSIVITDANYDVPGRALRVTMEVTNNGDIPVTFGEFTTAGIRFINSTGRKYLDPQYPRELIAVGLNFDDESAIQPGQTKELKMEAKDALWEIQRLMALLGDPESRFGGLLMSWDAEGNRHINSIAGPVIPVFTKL

[6] = tested on: local brachial artery vasodilatation; assay: Local brachial artery vasodilatation after bolus infusion (Rassaf et al.); format: in vivo, human; settings: for relative effectiveness (intravenous NO : SNP : GSNO): ratio, intravenous NO = 1
Description: SNP has also been compared to intravenous NO, where intravenous NO, SNP, and S—NO-glutathione (GSNO) were shown by Rassaf et al. to have relative “maximally effective doses” administered as bolus infusions in local brachial artery vasodilatation of 6 μM, 34 nM, and 5 nM respectively. (Rassaf et al., Evidence for in vivo transport of bioactive nitric oxide in human plasma, J. Clin. Invest. 109:1241-1248 (2002).) This puts the relative effectiveness of intravenous NO, SNP, and GSNO at 1:176:1200. There were significant differences in the temporal course of vasodilatation induced through the above treatments. […] Thus GSNO is roughly 7 times more “effective” at getting “NO active species” to peripheral GC than is SNP. Presumably then, a dose of about 0.1 μM/kg/hr of GSNO would have a vasodilatation effect equivalent to 0.75 μM/kg/hr SNP. The basal nitrate excretion is about 1 μM/kg/hr. If we assume that the vasodilatory effects of 0.75 μ/kg/hr SNP are on the “same order” as the indigenous NO already produced, then the 0.1 μkg/hr GSNO represents an increase in “effective NO” of […] over basal levels.

[7] = tested on: local brachial artery vasodilatation; settings: bolus infusion, cited from earlier work
[8] = tested on: Human Mast Cell Adhesion; settings: cited from earlier work
[9] = tested on: NOS; settings: horse, cited from earlier work
[10] = tested on: NOS; settings: chronic inhibition of NOS; cited from earlier work
[11] = tested on: NOS; settings: chronic inhibition of NOS; cited from earlier work; remark: listed apart in the source
[12] = tested on: NOS; settings: in vivo; cited from earlier work
[13] = tested on: NO synthesis; settings: in vivo; cited from earlier work
[14] = hyperbaric O2; cited from earlier work
[15] = type 2 diabetics; cited from earlier work
[16] = molecular target: T2, guanylyl cyclase (GC) (Homo sapiens, UniProt Q02153); settings: read-out: apparent EC50 for guanylyl cyclase activation, cited from earlier work
T2 construct: Soluble Guanylyl Cyclase, in Intact Cerebellar Cells; host or cells: intact cerebellar cells (endogenous)
T2 sequence (Q02153 1-619): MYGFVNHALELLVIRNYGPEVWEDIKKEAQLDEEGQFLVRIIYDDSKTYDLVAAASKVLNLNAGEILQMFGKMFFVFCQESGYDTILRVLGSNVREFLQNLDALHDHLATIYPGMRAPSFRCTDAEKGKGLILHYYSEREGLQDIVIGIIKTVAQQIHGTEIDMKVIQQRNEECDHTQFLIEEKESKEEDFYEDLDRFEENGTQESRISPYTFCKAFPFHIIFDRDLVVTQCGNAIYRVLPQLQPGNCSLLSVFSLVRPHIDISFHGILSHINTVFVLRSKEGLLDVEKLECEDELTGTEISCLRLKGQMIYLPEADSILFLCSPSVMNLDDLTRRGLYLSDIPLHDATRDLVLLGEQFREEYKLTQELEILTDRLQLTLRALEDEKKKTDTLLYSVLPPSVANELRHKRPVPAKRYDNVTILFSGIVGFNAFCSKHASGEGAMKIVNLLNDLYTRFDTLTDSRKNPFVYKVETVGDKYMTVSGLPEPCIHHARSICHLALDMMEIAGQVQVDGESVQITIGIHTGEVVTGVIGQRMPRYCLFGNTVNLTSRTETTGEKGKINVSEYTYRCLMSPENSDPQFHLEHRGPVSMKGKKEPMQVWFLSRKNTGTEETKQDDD
T2 sequence (Q02108 1-690 partner): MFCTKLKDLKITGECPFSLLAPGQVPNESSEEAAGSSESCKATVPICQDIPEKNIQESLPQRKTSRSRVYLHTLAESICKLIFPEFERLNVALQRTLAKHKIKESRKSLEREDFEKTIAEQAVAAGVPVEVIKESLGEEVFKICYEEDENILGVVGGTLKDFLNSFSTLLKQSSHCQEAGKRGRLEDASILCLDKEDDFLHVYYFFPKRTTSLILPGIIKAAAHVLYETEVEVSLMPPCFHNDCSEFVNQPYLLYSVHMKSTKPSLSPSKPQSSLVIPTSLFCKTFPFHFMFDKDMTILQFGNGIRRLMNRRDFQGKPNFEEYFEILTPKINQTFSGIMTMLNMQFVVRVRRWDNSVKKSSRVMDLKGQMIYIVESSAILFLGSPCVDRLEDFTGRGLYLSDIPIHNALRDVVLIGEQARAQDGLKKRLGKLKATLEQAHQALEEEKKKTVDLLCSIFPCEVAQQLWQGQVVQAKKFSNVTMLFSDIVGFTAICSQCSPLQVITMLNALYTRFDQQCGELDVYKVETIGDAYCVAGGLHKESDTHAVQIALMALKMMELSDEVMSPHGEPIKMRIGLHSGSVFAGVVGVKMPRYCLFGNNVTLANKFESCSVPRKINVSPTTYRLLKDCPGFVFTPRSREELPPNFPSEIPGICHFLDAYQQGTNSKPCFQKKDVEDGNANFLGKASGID

[17] = inhaled NO at 80 ppm in >90% O2 (16 μM/min=14 μM/kg/hr); cited from earlier work
[18] = compared with estrogen; cited from earlier work
[19] = tested on: AAOB; settings: cited from earlier work
[20] = physiologic concentrations of CP; cited from earlier work
[21] = tested on: murine macrophage cells (RAW264); settings: CP 2 μM/L in Krebs-Ringer-phosphate, absence of hemoglobin; cited from earlier work

CCCCCCCCCCC(C)c1ccc(S(=O)(=O)O)cc1 (centres unmarked) [4-(2-dodecyl)benzenesulfonic acid]
50% inhibitory concentration (IC50) [1]: 5 µg/mL (ppm) | 50% inhibitory concentration (IC50) [2]: 3 µg/mL (ppm) | 50% inhibitory concentration (IC50) [3]: 1 µg/mL (ppm) | 50% inhibitory concentration (IC50) [4]: 1 µg/mL (ppm)

C=CCNC(N)=S [Allylthiourea]
inhibition of ammonia monooxygenase [5]: very effective at inhibiting ammonia monooxygenase

N[C@@H](CCC(=O)N[C@@H](CSN=O)C(=O)NCC(=O)O)C(=O)O [GSNO, S-nitrosoglutathione]
effectiveness at getting NO active species to peripheral GC relative to SNP ([6]; GSNO versus SNP): roughly 7 times | relative effectiveness (intravenous NO : SNP : GSNO) [6]: 1200 | maximally effective dose, local brachial artery vasodilatation [7]: 0.005 µM | mast cell adhesion [8]: strongly down regulated

COC(=O)[C@@H](N)CCCNC(=N)N[N+](=O)[O-] [L-NAME, N(G)-nitro-L-arginine methyl ester]
VCO2max ([9]; L-NAME group (control 62.5)): 61.0 L/min | reduction of cardiac output ([9]; L-NAME group): 12% | fibrosis of heart and kidneys [10]: generalized fibrosis of the heart and kidneys | total (pancreatic islet) NO production [11]: can increase NO levels at particular sites; also recorded: increases total pancreatic islet NO production

NC(=NCCC[C@H](N)C(=O)O)N[N+](=O)[O-] [L-NNA, N-nitro-L arginine]
wake-sleep differences in cerebral blood flow [12]: abolishes wake-sleep differences in cerebral blood flow | reduction in basal temperature following hypoxia [13]: greatly diminished

N=C(N)NCCC[C@H](N)C(=O)O [L-arginine]
latency to seizure [14]: increase the latency to seizure | forearm blood flow [15]: increases forearm blood flow | insulin sensitivity [15]: increases insulin sensitivity

[N]=O [NO, nitric oxide]
relative effectiveness (intravenous NO : SNP : GSNO) [6]: 1 | EC50 ([16]; rapid (˜100 ms) activation): ~45 nM | EC50 ([16]; slow (˜1 to 10 sec) activation): ~20 nM | change in mean arterial pressure [17]: no change in mean arterial pressure | maximally effective dose, local brachial artery vasodilatation ([7]; intravenous): 6 µM

O=[N+]([O-])OCC(CO[N+](=O)[O-])O[N+](=O)[O-] [nitroglycerin]
prevention of bone loss [18]: as effective as estrogen to prevent bone loss

S-nitroso-N-acetylpenicilamine [SNAP]
latency to seizure [14]: significantly shortens

linear alkylbenzene sulfonates [LAS]
toxicity to AAOB [19]: toxic to AAOB at ppm levels | toxicity to AAOB ([19]; listed as linear alkyl benzene sulfonate detergents): killed by ppm levels

B1: CP: ceruloplasmin, the main Cu containing serum protein (protein, UniProt P00450 20-1065, looked up)
Ceruloplasmin: KEKHYYIGIIETTWDYASDHGEKKLISVDTEHSNIYLQNGPDRIGRLYKKALYLQYTDETFRTTIEKPVWLGFLGPIIKAETGDKVYVHLKNLASRPYTFHSHGITYYKEHEGAIYPDNTTDFQRADDKVYPGEQYTYMLLATEEQSPGEGDGNCVTRIYHSHIDAPKDIASGLIGPLIICKKDSLDKEKEKHIDREFVVMFSVVDENFSWYLEDNIKTYCSEPEKVDKDNEDFQESNRMYSVNGYTFGSLPGLSMCAEDRVKWYLFGMGNEVDVHAAFFHGQALTNKNYRIDTINLFPATLFDAYMVAQNPGEWMLSCQNLNHLKAGLQAFFQVQECNKSSSKDNIRGKHVRHYYIAAEEIIWNYAPSGIDIFTKENLTAPGSDSAVFFEQGTTRIGGSYKKLVYREYTDASFTNRKERGPEEEHLGILGPVIWAEVGDTIRVTFHNKGAYPLSIEPIGVRFNKNNEGTYYSPNYNPQSRSVPPSASHVAPTETFTYEWTVPKEVGPTNADPVCLAKMYYSAVEPTKDIFTGLIGPMKICKKGSLHANGRQKDVDKEFYLFPTVFDENESLLLEDNIRMFTTAPDQVDKEDEDFQESNKMHSMNGFMYGNQPGLTMCKGDSVVWYLFSAGNEADVHGIYFSGNTYLWRGERRDTANLFPQTSLTLHMWPDTEGTFNVECLTTDHYTGGMKQKYTVNQCRRQSEDSTFYLGERTYYIAAVEVEWDYSPQREWEKELHHLQEQNVSNAFLDKGEFYIGSKYKKVVYRQYTDSTFRVPVERKAEEEHLGILGPQLHADVGDKVKIIFKNMATRPYSIHAHGVQTESSTVTPTLPGETLTYVWKIPERSGAGTEDSACIPWAYYSTVDQVKDLYSGLIGPLIVCRRPYLKVFNPRRKLEFALLFLVFDENESWYLDDNIKTYSDHPEKVNKDDEEFIESNKMHAINGRMFGNLQGLTMHVGDEVNWYLMGMGNEIDLHTVHFHGHSFQYKHRGVYSSDVFDIFPGTYQTLEMFPRTPGIWLLHCHVTDHIHAGMETTYTVLQNEDTKSG
increase in formation of GSNO from NO and GSH [20]: approximately 100 times | conversion of authentic NO to RSNO (recovered NAC—NO) [21]: ≤ 33%
